Experimental data from ChEMBL document CHEMBL1143039, “Further modification on phenyl acetic acid based quinolines as liver X receptor modulators” (Bioorg Med Chem, 2007).

Columns and labels:
Mus musculus [1] = assay: Increase in plasma triglyceride level in C57BL/6 ApoE knockout mouse at 10 mg/kg, po for 12 weeks; type: functional
Mus musculus [2] = assay: Reduction of aortic arch lesion in C57BL/6 ApoE knockout mouse at 10 mg/kg, po for 12 weeks; type: functional, Pharyngeal arch artery; set-up: scale not given: the % may be the effect or the level left
Mus musculus [3] = assay: Reduction in aortic arch lesion area in C57BL/6 ApoE knockout mouse at 10 mg/kg, po for 12 weeks; type: functional, Pharyngeal arch artery
[4] = target: T1, Oxysterols receptor LXR-beta (Homo sapiens, UniProt P55055); assay: biochemical
T1 sequence (P55055 whole entry): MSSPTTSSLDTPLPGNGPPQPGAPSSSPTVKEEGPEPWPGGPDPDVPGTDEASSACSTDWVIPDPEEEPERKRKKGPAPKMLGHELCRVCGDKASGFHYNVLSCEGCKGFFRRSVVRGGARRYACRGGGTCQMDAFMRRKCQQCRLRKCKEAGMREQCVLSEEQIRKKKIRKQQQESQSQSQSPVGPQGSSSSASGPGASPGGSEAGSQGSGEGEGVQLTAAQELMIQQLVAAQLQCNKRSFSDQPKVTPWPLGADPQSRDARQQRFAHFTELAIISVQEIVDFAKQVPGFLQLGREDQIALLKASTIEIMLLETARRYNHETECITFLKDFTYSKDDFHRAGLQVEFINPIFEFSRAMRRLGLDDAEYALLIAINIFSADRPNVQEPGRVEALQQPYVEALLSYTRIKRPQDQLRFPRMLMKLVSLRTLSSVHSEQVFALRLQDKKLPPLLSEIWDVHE
Description: Displacement of [3H]T0901317 from human recombinant LXRbeta expressed in CHO cells

[5] = target: T2, Oxysterols receptor LXR-alpha (Homo sapiens, UniProt Q13133); assay: biochemical
T2 sequence (Q13133 whole entry): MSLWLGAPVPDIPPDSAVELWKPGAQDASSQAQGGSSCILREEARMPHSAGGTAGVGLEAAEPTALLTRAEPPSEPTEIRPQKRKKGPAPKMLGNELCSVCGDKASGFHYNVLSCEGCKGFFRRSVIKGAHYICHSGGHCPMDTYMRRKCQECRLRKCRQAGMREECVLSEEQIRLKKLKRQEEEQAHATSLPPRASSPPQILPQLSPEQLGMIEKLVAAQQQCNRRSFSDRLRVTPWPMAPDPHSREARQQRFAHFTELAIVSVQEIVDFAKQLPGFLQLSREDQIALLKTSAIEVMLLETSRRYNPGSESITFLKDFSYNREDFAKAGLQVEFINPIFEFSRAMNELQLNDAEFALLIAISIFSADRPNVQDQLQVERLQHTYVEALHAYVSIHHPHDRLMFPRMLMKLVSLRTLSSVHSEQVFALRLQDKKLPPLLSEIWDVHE
Description: Displacement of [3H]T-0901317 from human recombinant LXRalpha expressed in CHO cells

[6] = Bioavailability in C57BL/6 mouse at 10 mg/kg, po; type: ADME, organism-based; settings: in vivo
[7] = Clearance in C57BL/6 mouse at 1 mg/kg, iv; type: ADME, organism-based; set-up: dose 1 mg/kg, route intravenous; settings: in vivo
[8] = target: T3, Peroxisome proliferator-activated receptor alpha (Homo sapiens, UniProt Q07869); assay: Agonist activity at human recombinant PPARalpha by GAL4 transactivation assay; type: functional
T3 sequence (Q07869 whole entry): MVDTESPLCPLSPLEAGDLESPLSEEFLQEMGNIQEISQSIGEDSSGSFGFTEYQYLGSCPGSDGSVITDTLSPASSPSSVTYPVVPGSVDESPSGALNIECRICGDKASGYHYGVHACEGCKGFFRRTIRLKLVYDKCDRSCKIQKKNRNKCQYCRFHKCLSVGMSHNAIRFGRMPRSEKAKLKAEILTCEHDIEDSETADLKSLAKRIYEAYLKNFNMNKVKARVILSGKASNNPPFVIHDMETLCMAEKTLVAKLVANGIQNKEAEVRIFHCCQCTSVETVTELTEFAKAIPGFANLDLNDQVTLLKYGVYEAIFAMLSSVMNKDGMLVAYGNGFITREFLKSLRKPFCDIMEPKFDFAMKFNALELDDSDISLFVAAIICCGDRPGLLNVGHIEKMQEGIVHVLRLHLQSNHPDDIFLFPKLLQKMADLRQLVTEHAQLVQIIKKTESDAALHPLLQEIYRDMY

[9] = target: T4, Oxysterols receptor LXR-beta (Homo sapiens) (UniProt P55055); assay: Agonist activity at human recombinant LXRbeta expressed in Huh7 cells by GAL4 transactivation assay relative to TO901317; type: functional, cell-based; settings: Huh-7
T4 sequence (whole entry): T1 sequence (P55055 whole entry)

THP-1 [10] = assay: Increase in ABCA1 gene expression in THP1 cells; type: functional, cell-based; settings: Homo sapiens
[11] = Half life in C57BL/6 mouse at 10 mg/kg, po; type: ADME, organism-based; set-up: dose 10 mg/kg, route oral; settings: in vivo
[12] = target: T1, Oxysterols receptor LXR-beta
Description: Agonist activity at human recombinant LXRbeta expressed in CHO cells

[13] = target: T2, Oxysterols receptor LXR-alpha; assay: Agonist activity at human recombinant LXRalpha expressed in Huh7 cells by GAL4 transactivation assay; type: functional, cell-based, Huh-7
[14] = target: T1, Oxysterols receptor LXR-beta; assay: Agonist activity at human recombinant LXRbeta expressed in Huh7 cells by GAL4 transactivation assay; type: functional, cell-based, Huh-7
[15] = Tmax in C57BL/6 mouse at 10 mg/kg, po; type: ADME, organism-based; set-up: dose 10 mg/kg, route oral; settings: in vivo
Huh-7 [16] = assay: Increase in SREBP1c gene expression in Huh7 cells relative to TO901317; type: functional, Homo sapiens
[17] = target: T5, Oxysterols receptor LXR-alpha (Homo sapiens) (UniProt Q13133); assay: Agonist activity at human recombinant LXRalpha expressed in Huh7 cells by GAL4 transactivation assay relative to TO901317; type: functional, cell-based; settings: Huh-7
T5 sequence (whole entry): T2 sequence (Q13133 whole entry)

[18] = target: T6, Peroxisome proliferator-activated receptor gamma (Homo sapiens, UniProt P37231); assay: Agonist activity at human recombinant PPARgamma by GAL4 transactivation assay; type: functional
T6 sequence (P37231 whole entry): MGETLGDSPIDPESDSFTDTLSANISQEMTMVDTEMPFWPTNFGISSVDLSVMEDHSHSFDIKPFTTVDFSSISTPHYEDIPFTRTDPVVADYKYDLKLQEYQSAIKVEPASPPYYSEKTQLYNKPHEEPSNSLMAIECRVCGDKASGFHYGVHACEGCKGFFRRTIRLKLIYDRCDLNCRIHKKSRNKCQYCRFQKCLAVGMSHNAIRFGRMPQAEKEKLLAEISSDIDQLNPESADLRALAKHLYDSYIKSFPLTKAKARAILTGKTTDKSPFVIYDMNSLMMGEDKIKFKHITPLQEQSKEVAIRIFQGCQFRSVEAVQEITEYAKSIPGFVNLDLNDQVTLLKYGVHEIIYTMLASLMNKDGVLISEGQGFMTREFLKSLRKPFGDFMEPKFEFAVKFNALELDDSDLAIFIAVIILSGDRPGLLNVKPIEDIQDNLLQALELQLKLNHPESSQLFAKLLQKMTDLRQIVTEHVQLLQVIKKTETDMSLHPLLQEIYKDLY

[19] = Volume of distribution in C57BL/6 mouse at 1 mg/kg, iv; type: ADME, organism-based; set-up: dose 1 mg/kg, route intravenous; settings: in vivo, read-out: Vss
Liver microsomes = assay: Stability in human liver microsomes; type: ADME, Microsome
[20] = AUC (infinity) in C57BL/6 mouse at 10 mg/kg, po; type: ADME, organism-based; set-up: time infinity, dose 10 mg/kg, route oral; settings: plasma
[21] = target: T7, Peroxisome proliferator-activated receptor gamma (Homo sapiens) (UniProt P37231); assay: Agonist activity at human recombinant PPARgamma by GAL4 transactivation assay relative to rosiglitazone; type: functional
T7 sequence (whole entry): T6 sequence (P37231 whole entry)

[22] = Stability in mouse liver microsomes; type: ADME, Microsome
Huh-7 [23] = assay: Increase in SREBP1c gene expression in Huh7 cells; type: functional, cell-based; settings: Homo sapiens
THP-1 [24] = assay: Increase in ABCA1 gene expression in THP1 cells relative to TO901317; type: functional, Homo sapiens
[25] = target: T8, Peroxisome proliferator-activated receptor alpha (Homo sapiens) (UniProt Q07869); assay: Agonist activity at human recombinant PPARalpha by GAL4 transactivation assay relative to WY-14643; type: functional
T8 sequence (whole entry): T3 sequence (Q07869 whole entry)

[26] = Cmax in C57BL/6 mouse at 10 mg/kg, po; type: ADME, organism-based; set-up: dose 10 mg/kg, route oral; settings: in vivo
[27] = Half life in C57BL/6 mouse at 1 mg/kg, iv; type: ADME, organism-based; set-up: dose 1 mg/kg, route intravenous; settings: in vivo
[28] = target: T9, Peroxisome proliferator-activated receptor delta (Homo sapiens, UniProt Q03181); assay: Agonist activity at human recombinant PPARdelta by GAL4 transactivation assay; type: functional
T9 sequence (Q03181 whole entry): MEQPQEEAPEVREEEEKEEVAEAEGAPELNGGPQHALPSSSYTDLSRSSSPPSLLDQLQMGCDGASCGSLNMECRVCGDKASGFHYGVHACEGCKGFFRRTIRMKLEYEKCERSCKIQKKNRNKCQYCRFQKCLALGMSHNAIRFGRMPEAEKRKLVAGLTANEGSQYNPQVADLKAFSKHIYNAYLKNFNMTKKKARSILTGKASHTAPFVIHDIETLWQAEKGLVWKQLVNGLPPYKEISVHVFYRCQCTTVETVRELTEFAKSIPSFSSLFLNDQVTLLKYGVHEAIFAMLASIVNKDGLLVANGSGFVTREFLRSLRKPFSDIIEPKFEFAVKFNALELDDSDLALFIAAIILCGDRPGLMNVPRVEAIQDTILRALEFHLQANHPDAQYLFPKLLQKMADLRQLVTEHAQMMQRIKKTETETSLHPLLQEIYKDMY

| Structure (SMILES) | Activity (Mus musculus [1]) [mg/dL] | Activity (Mus musculus [2]) [%] | aortic arch lesion area (Mus musculus [3]) [%] | IC50 [4] [nM] | IC50 [5] [nM] | bioavailability [6] [%] | clearance [7] [mL/min/kg] | EC50 [8] [nM] | Activity [9] [%] | EC50 (THP-1 [10]) [nM] | half-life [11] [min] | EC50 [12] [nM] | EC50 [13] [nM] | EC50 [14] [nM] | Tmax [15] [min] | Activity (Huh-7 [16]) [%] | Activity [17] [%] | EC50 [18] [nM] | Vd [19] [L/kg] | Stability (Liver microsomes) | other results |
| --- | --- | --- | --- | --- | --- | --- | --- | --- | --- | --- | --- | --- | --- | --- | --- | --- | --- | --- | --- | --- | --- |
| O=C(O)Cc1cccc(OCCCN(Cc2cccc(C(F)(F)F)c2Cl)CC(c2ccccc2)c2ccccc2)c1 | 2.95 | 79 | 1.99 | – | – | – | – | – | – | – | – | – | – | – | – | – | – | – | – | – | – |
| O=C(O)/C=C/c1ccc(CNc2cccc(-c3c(C(=O)c4ccccc4)cnc4c(C(F)(F)F)cccc34)c2)cc1 | – | – | – | > 10000 | > 10000 | – | – | – | – | – | – | – | – | – | – | – | – | – | – | – | – |
| NC(=O)c1cnc2c(C(F)(F)F)cccc2c1-c1cccc(NCc2ccc(CC(=O)O)cc2)c1 | – | – | – | > 10000 | > 10000 | – | – | – | – | – | – | – | – | – | – | – | – | – | – | – | – |
| O=C(O)Cc1ccc(CNc2cccc(-c3c(Cc4ccccc4)cnc4c(Cl)cccc34)c2)cc1 | 64.56 | 53 | 4.47 | 1.4 | 5 | 57 | 37 | 2050 | 67 | 81 | 72 | 23 | 121 | 54 | 15 | 137 | 89 | 506 | 1.8 | Stable | AUC(0-inf) [20]: 2580 ng·h/mL; Activity [21]: 50.6%; Stability [22]: Stable; EC50 (Huh-7 [23]): 75 nM; Activity (THP-1 [24]): 162%; Activity [25]: 12%; Cmax [26]: 2500 ng/mL; half-life [27]: 108 min; EC50 [28]: 631 nM |
| Cc1cccc2c(-c3cccc(NCc4ccc(CC(=O)O)cc4)c3)c(Cc3ccccc3)cnc12 | 15.2 | 57 | 4.09 | 5 | 21 | 53 | 25 | 1770 | 75 | 438 | 72 | 90 | 467 | 267 | 15 | 114 | 101 | 1030 | 1.2 | Stable | AUC(0-inf) [20]: 3580 ng·h/mL; Activity [21]: 46.6%; Stability [22]: Stable; EC50 (Huh-7 [23]): 51.4 nM; Activity (THP-1 [24]): 139%; Activity [25]: 7.5%; Cmax [26]: 4190 ng/mL; half-life [27]: 96 min; EC50 [28]: 1970 nM |
